Assay results as given in paper PMC9604400, “Synthesis, Anticancer and Antitubercular Properties of New Chalcones and Their Nitrogen-Containing Five-Membered Heterocyclic Hybrids Bearing Sulfonamide Moiety” (International Journal of Molecular Sciences, 2022).

Experiments:
HOP-62 = experiment: NCI-60 screen (SRB), non-small cell lung cancer; conditions: Homo sapiens; for IC50: HOP-62; for CC50: HOP-62, read-out: LC50
SR = experiment: NCI-60 screen (SRB), leukemia; conditions: for IC50 / CC50: Homo sapiens; for CC50: read-out: LC50
NCI-H226 = experiment: NCI-60 screen (SRB), non-small cell lung cancer; conditions: for IC50 / CC50: Homo sapiens; for IC50: NCI-H226; for CC50: NCI-H226, read-out: LC50
HS 578T = experiment: NCI-60 screen (SRB), breast cancer; conditions: Homo sapiens, Hs-578T; for CC50: read-out: LC50
NCI-H460 = experiment: NCI-60 screen (SRB), non-small cell lung cancer; conditions: for IC50 / CC50: Homo sapiens; for IC50: NCI-H460; for CC50: NCI-H460, read-out: LC50
RXF 393 = experiment: NCI-60 screen (SRB), renal cancer; conditions: for IC50 / CC50: Homo sapiens; for IC50: RXF 393; for CC50: RXF 393, read-out: LC50; for lethality: RXF 393, single dose 10 μM
HCT-116 = experiment: NCI-60 screen (SRB), colon cancer; conditions: Homo sapiens; for IC50: HCT-116; for CC50: HCT-116, read-out: LC50
COLO 205 = experiment: NCI-60 screen (SRB), colon cancer; conditions: for IC50 / CC50: Homo sapiens; for IC50: COLO 205; for CC50: COLO 205, read-out: LC50
MDA-MB-231/ATCC = experiment: NCI-60 screen (SRB), breast cancer; conditions: Homo sapiens; for IC50: MDA-MB-231; for CC50: MDA-MB-231, read-out: LC50
MALME-3M = experiment: NCI-60 screen (SRB), melanoma; conditions: Homo sapiens; for CC50: read-out: LC50
NCI/ADR-RES = experiment: NCI-60 screen (SRB), ovarian cancer; conditions: Homo sapiens; for CC50: read-out: LC50
MOLT-4 = experiment: NCI-60 screen (SRB), leukemia; conditions: Homo sapiens; for IC50: MOLT-4; for CC50: MOLT-4, read-out: LC50
UACC-257 = experiment: NCI-60 screen (SRB), melanoma; conditions: Homo sapiens; for IC50: UACC-257; for CC50: UACC-257, read-out: LC50
NCI-H522 = experiment: NCI-60 screen (SRB), non-small cell lung cancer; conditions: Homo sapiens; for IC50: NCI-H522; for CC50: NCI-H522, read-out: LC50
UO-31 = experiment: NCI-60 screen (SRB), renal cancer; conditions: Homo sapiens; for IC50: UO-31; for CC50: UO-31, read-out: LC50
HT29 = experiment: NCI-60 screen (SRB), colon cancer; conditions: Homo sapiens; for IC50: HT-29; for CC50: HT-29, read-out: LC50
SK-MEL-5 = experiment: NCI-60 screen (SRB), melanoma; conditions: Homo sapiens; for IC50: SK-MEL-5; for CC50: SK-MEL-5, read-out: LC50
A549/ATCC = experiment: NCI-60 screen (SRB), non-small cell lung cancer; conditions: Homo sapiens; for IC50: A549; for CC50: A549, read-out: LC50
TK-10 = experiment: NCI-60 screen (SRB), renal cancer; conditions: Homo sapiens; for IC50: TK-10; for CC50: TK-10, read-out: LC50
ACHN = experiment: NCI-60 screen (SRB), renal cancer; conditions: Homo sapiens; for CC50: read-out: LC50
MDA-MB-435 = experiment: NCI-60 screen (SRB), melanoma; conditions: Homo sapiens; for IC50: MDA-MB-435; for CC50: MDA-MB-435, read-out: LC50
SK-OV-3 = experiment: NCI-60 screen (SRB), ovarian cancer; conditions: Homo sapiens; for IC50: SK-OV-3; for CC50: SK-OV-3, read-out: LC50
PC-3 = experiment: NCI-60 screen (SRB), prostate cancer; conditions: Homo sapiens; for IC50: PC-3; for CC50: PC-3, read-out: LC50
leukemia cell lines = experiment: NCI-60 screen (SRB), leukemia panel; assay type: cell-based; conditions: Homo sapiens; leukemia panel, single dose 10 μM; read-out: GI (growth inhibition), range over panel
MDA-MB-468 = experiment: NCI-60 screen (SRB), breast cancer; conditions: for IC50 / CC50: Homo sapiens; for IC50: MDA-MB-468; for CC50: MDA-MB-468, read-out: LC50; for lethality: MDA-MB-468, single dose 10 μM
HCT-15 = experiment: NCI-60 screen (SRB), colon cancer; conditions: for IC50 / CC50: Homo sapiens; for IC50: HCT-15; for CC50: HCT-15, read-out: LC50
LOX IMVI = experiment: NCI-60 screen (SRB), melanoma; conditions: for IC50 / CC50: Homo sapiens; for CC50: read-out: LC50
SN12C = experiment: NCI-60 screen (SRB), renal cancer; conditions: Homo sapiens; for CC50: read-out: LC50
breast cancer cell lines = experiment: NCI-60 screen (SRB), breast cancer panel; assay type: cell-based; conditions: Homo sapiens, single dose 10 μM, read-out: GI (growth inhibition), range over panel
UACC-62 = experiment: NCI-60 screen (SRB), melanoma; conditions: Homo sapiens; for IC50: UACC-62; for CC50: UACC-62, read-out: LC50
SF-268 = experiment: NCI-60 screen (SRB), CNS cancer; conditions: Homo sapiens; for IC50: SF-268; for CC50: SF-268, read-out: LC50
colon cancer cell lines = experiment: NCI-60 screen (SRB), colon cancer panel; assay type: cell-based; conditions: Homo sapiens, single dose 10 μM, read-out: GI (growth inhibition), range over panel
HOP-92 = experiment: NCI-60 screen (SRB), non-small cell lung cancer; conditions: Homo sapiens; for IC50: HOP-92; for CC50: HOP-92, read-out: LC50

Compound: COc1cc(OC)c(S(N)(=O)=O)cc1C(=O)/C=C/c1ccc(Cl)cc1 [Compound 17b, (E)-5-(3-(4-Chlorophenyl)acryloyl)-2,4-dimethoxybenzenesulfonamide]
- IC50 (HOP-62): 2.5 µM
- CC50 (HOP-62): 25.9 µM
- IC50 (SR): 2.11 µM
- CC50 (SR): > 100 µM
- lethality (SR; single dose 10 μM): 19.50%
- IC50 (NCI-H226): 2.56 µM
- CC50 (NCI-H226): > 100 µM
- lethality (NCI-H226; NCI-H226, single dose 10 μM): 25.96%
- IC50 (HS 578T): > 100 µM
- CC50 (HS 578T): > 100 µM
- IC50 (NCI-H460): 2.84 µM
- CC50 (NCI-H460): > 100 µM
- IC50 (RXF 393): 1.62 µM
- CC50 (RXF 393): 6.89 µM
- lethality (RXF 393): 40.37%
- IC50 (HCT-116): 0.75 µM
- CC50 (HCT-116): 5.13 µM
- lethality (COLO 205; COLO 205, single dose 10 μM): 30.00%
- IC50 (COLO 205): 1.66 µM
- CC50 (COLO 205): 5.88 µM
- IC50 (MDA-MB-231/ATCC): 18.9 µM
- CC50 (MDA-MB-231/ATCC): > 100 µM
- IC50 (MALME-3M): 2.79 µM
- CC50 (MALME-3M): 87.4 µM
- IC50 (NCI/ADR-RES): 3.97 µM
- CC50 (NCI/ADR-RES): > 100 µM
- IC50 (MOLT-4): 2.83 µM
- CC50 (MOLT-4): > 100 µM
- IC50 (UACC-257): 5.46 µM
- CC50 (UACC-257): 71.6 µM
- IC50 (NCI-H522): 1.63 µM
- CC50 (NCI-H522): 7.14 µM
- IC50 (UO-31): 2.36 µM
- CC50 (UO-31): 33.1 µM
- IC50 (HT29): 2.18 µM
- CC50 (HT29): 9.97 µM
- IC50 (SK-MEL-5): 4.93 µM
- CC50 (SK-MEL-5): 43 µM
- IC50 (A549/ATCC): 3.17 µM
- CC50 (A549/ATCC): > 100 µM
- IC50 (TK-10): 2.91 µM
- CC50 (TK-10): 33.4 µM
- IC50 (ACHN): 3.16 µM
- CC50 (ACHN): 33.4 µM
- IC50 (MDA-MB-435): 2.08 µM
- CC50 (MDA-MB-435): 29.3 µM
- IC50 (SK-OV-3): 2.8 µM
- CC50 (SK-OV-3): 35.4 µM
- IC50 (PC-3): 1.6 µM
- CC50 (PC-3): 20.8 µM
- inhibition at 10 µM (leukemia cell lines): 92.8 to 100%
- IC50 (MDA-MB-468): 3.08 µM
- CC50 (MDA-MB-468): 6.54 µM
- lethality (MDA-MB-468): 57.82%
- lethality (HCT-15; HCT-15, single dose 10 μM): 41.55%
- IC50 (HCT-15): 1.46 µM
- CC50 (HCT-15): > 100 µM
- IC50 (LOX IMVI): 0.73 µM
- CC50 (LOX IMVI): 7.03 µM
- lethality (LOX IMVI; single dose 10 μM): 50.40%
- IC50 (SN12C): 2.48 µM
- CC50 (SN12C): 60.2 µM
- inhibition at 10 µM (breast cancer cell lines): 73.9 to 100%
- IC50 (UACC-62): 2.67 µM
- CC50 (UACC-62): 40.8 µM
- IC50 (SF-268): 3.75 µM
- CC50 (SF-268): > 100 µM
- inhibition at 10 µM (colon cancer cell lines): 92.2 to 100%
- IC50 (HOP-92): 1.46 µM
- CC50 (HOP-92): 24.9 µM

Compound: COc1cc(OC)c(S(N)(=O)=O)cc1C(=O)/C=C/c1ccc(C)cc1 [Compound 17c, (E)-2,4-Dimethoxy-5-(3-(p-tolyl)acryloyl)benzenesulfonamide]
- IC50 (HOP-62): 2.9 µM
- CC50 (HOP-62): 29.5 µM
- IC50 (SR): 2.26 µM
- CC50 (SR): > 100 µM
- IC50 (NCI-H226): 4.14 µM
- CC50 (NCI-H226): 90.8 µM
- IC50 (HS 578T): 3.5 µM
- CC50 (HS 578T): > 100 µM
- IC50 (NCI-H460): 2.24 µM
- CC50 (NCI-H460): 44.3 µM
- lethality (NCI-H460; NCI-H460, single dose 10 μM): 3.51%
- IC50 (RXF 393): 2.24 µM
- CC50 (RXF 393): 28.8 µM
- lethality (RXF 393): 28.21%
- IC50 (HCT-116): 30.6 µM
- CC50 (HCT-116): 58 µM
- IC50 (COLO 205): 3.33 µM
- CC50 (COLO 205): 41.7 µM
- IC50 (MDA-MB-231/ATCC): 3.41 µM
- CC50 (MDA-MB-231/ATCC): 60 µM
- IC50 (MALME-3M): 8.55 µM
- CC50 (MALME-3M): 59.5 µM
- IC50 (NCI/ADR-RES): 5.25 µM
- CC50 (NCI/ADR-RES): > 100 µM
- IC50 (MOLT-4): 3.07 µM
- CC50 (MOLT-4): > 100 µM
- IC50 (UACC-257): 3.86 µM
- CC50 (UACC-257): 41.9 µM
- IC50 (NCI-H522): 2.48 µM
- CC50 (NCI-H522): 32.5 µM
- IC50 (UO-31): 3.46 µM
- CC50 (UO-31): 38.1 µM
- IC50 (HT29): 3.5 µM
- CC50 (HT29): 64.7 µM
- IC50 (SK-MEL-5): 7.81 µM
- CC50 (SK-MEL-5): 49.4 µM
- IC50 (A549/ATCC): 2.75 µM
- CC50 (A549/ATCC): 34.8 µM
- IC50 (TK-10): 3.41 µM
- CC50 (TK-10): 39.6 µM
- IC50 (ACHN): 3.86 µM
- CC50 (ACHN): 37.3 µM
- IC50 (MDA-MB-435): 2.27 µM
- CC50 (MDA-MB-435): 25.4 µM
- IC50 (SK-OV-3): 3.18 µM
- CC50 (SK-OV-3): 32.5 µM
- IC50 (PC-3): 3.42 µM
- CC50 (PC-3): 55.1 µM
- inhibition at 10 µM (leukemia cell lines): 78.9 to 94.3%
- IC50 (MDA-MB-468): 1.96 µM
- CC50 (MDA-MB-468): 54.3 µM
- lethality (MDA-MB-468): 36.18%
- IC50 (HCT-15): 2.56 µM
- CC50 (HCT-15): 74.8 µM
- IC50 (LOX IMVI): 0.54 µM
- CC50 (LOX IMVI): 76.2 µM
- IC50 (SN12C): 2.95 µM
- CC50 (SN12C): 38.8 µM
- inhibition at 10 µM (breast cancer cell lines): 78.7 to 100%
- IC50 (UACC-62): 3.63 µM
- CC50 (UACC-62): 46.2 µM
- IC50 (SF-268): 3.2 µM
- CC50 (SF-268): > 100 µM
- inhibition at 10 µM (colon cancer cell lines): 83 to 100%
- IC50 (HOP-92): 2.3 µM
- CC50 (HOP-92): 35.4 µM
